Results published in US10512635B2, “Uses of benzimidazole derivative for nocturnal acid breakthrough” (CJ HEALTHCARE CORPORATION, priority 2015, dated 2019).
“And” between values parts separate entries of the source, which are not always exact repeats. Equal values may be shown once.

Tested on: gastric pH
Assay: Clinical trial: 24 h gastric pH monitoring after single night-time oral dose
Assay type: in vivo, human (healthy male volunteers)
Conditions: for % inhibition of IA / % inhibition of Time pH < 4: post-dose vs baseline; for % inhibition of IA / % inhibition of Time pH < 4 / IA (integrated acidity) / Median pH / Time pH > 4 (%) / Time pH > 6 (%): mean N=12; for IA (integrated acidity) / Median pH / Time pH > 4 (%) / Time pH > 6 (%): post-dose
Protocol: In order to evaluate the nocturnal acid breakthrough inhibiting effect of the compound of Chemical Formula 1 according to the present disclosure, clinical trials were designed by Randomized, Open-label, Single-dose, Balanced incomplete block crossover. A total of 24 trial subjects were enrolled for 12 sequences, with two trial subjects assigned per a sequence. All the trial subjects have completed the planned clinical trial schedule (FIG. 1 and Table 1).
Trial drugs were administered between P.M. 08:30 and P.M 10:30 together with 200 mL of water in a state where water intake was restricted 1 hour before the administration of the trial drugs. Investigator has instructed the trial subjects to take the trial drugs, and has observed the oral cavities of the trial subjects whether all the trial drugs were well taken. The trial subjects were restricted not to lie down for 3 hours after the administration of the trial drugs, but were not restricted when they must lie down or be semi-reclined during a clinical test procedure (for example, electrocardiogram examination). The trial subjects were to take a proper posture if any abnormal reaction occurs at any point.
The trial subjects were allowed to take a small amount of water (150 mL or less) in order to insert a pH sensor easily. The intake of drinking water and food was prohibited for 4 hours after the insertion of a pH sensor, and, particularly, the intake of water was restricted for 4 hours after the administration of the trial drugs (On the day before the administration (−1 D), for 4 hours after estimated drug administration time). After the trial subjects woke up next day, a small amount of water (about 50 mL) was provided to the trial subjects at 2 hour intervals during 12 to 24 hours after the administration of the trial drugs (On the day before the administration (−1 D), during 12 to 24 hours after estimated drug administration time), and the intake of water was not restricted during meal time. Meanwhile, standard meal was provided in the form of liquid meal or semi-liquid, and dinner was finished at least 3 hours before drug administration time (On the day before the administration (−1 D), estimated drug administration time). After dinner, an empty stomach state was maintained until breakfast next morning.
Specifically, for the analysis of […] parameters, the changes of average 15-min median gastric pH over time were monitored. The main […] parameters set forth above were calculated using the data of total 24 persons obtained by the monitoring of gastric pH. The time function of […] parameters was schematically was illustrated to calculate the […] parameters, and these […] parameters were summarized using descriptive statistics (arithmetic mean (mean), standard deviation (SD), coefficient of variation (CV (%)), sample size (N), minimum value (min), maximum value (max), and median value (median)).
Meanwhile, the monitoring of gastric pH was carried out as fellows. • Period 1: for each examination period, 24 h for −1 D (before administration), 24 h for each of 1 D and 7 D (after administration) • Period 2: 24 h for 1 D (after administration)

[1] = dexlansoprazole 60 mg (Comparative Example), 24 hours
[2] = dexlansoprazole 60 mg (Comparative Example), day-time (12-24 hours)
[3] = dexlansoprazole 60 mg (Comparative Example), night-time (0-12 hours)
[4] = Compound I 50 mg (Example 1), 24 hours
[5] = Compound I 50 mg (Example 1), day-time (12-24 hours)
[6] = Compound I 50 mg (Example 1), night-time (0-12 hours)
[7] = Compound I 100 mg (Example 2), 24 hours
[8] = Compound I 100 mg (Example 2), day-time (12-24 hours)
[9] = Compound I 100 mg (Example 2), night-time (0-12 hours)
[10] = Compound I 200 mg (two formulations of Example 2), 24 hours
[11] = Compound I 200 mg (two formulations of Example 2), day-time (12-24 hours)
[12] = Compound I 200 mg (two formulations of Example 2), night-time (0-12 hours)

With `Cc1c(OCC(F)(F)F)ccnc1C[S@@+]([O-])c1nc2ccccc2[nH]1` [dexlansoprazole, reference compound] the “% inhibition of IA” value [1] was 64.66%, the “% inhibition of Time pH < 4” value [1] was 53.96% and the “% inhibition of IA” value [2] was 97.01%. For the same compound, the “% inhibition of Time pH < 4” value [2] was 79.80%, the “% inhibition of IA” value [3] was 44.06% and the “% inhibition of Time pH < 4” value [3] was 29.98%. The “IA (integrated acidity)” value [1] was 719.54 mmol·h/L, the “Median pH” value [1] was 4.98 and the “Time pH > 4 (%)” value [1] was 60.55%. The “Time pH > 6 (%)” value [1] was 25.85%, the “IA (integrated acidity)” value [2] was 22.89 mmol·h/L and the “Median pH” value [2] was 5.56. The “Time pH > 4 (%)” value [2] was 83.05% and 83.06%, the “Time pH > 6 (%)” value [2] was 33.71% and the “IA (integrated acidity)” value [3] was 696.55 mmol·h/L. For the same compound, the “Median pH” value [3] was 2.55, the “Time pH > 4 (%)” value [3] was 37.78% and the “Time pH > 6 (%)” value [3] was 17.76%.
In the case of `Cc1nc2c(OC3CCOc4cc(F)cc(F)c43)cc(C(=O)N(C)C)cc2[nH]1` (centres unmarked) [Compound I, 4-(5,7-difluorochroman-4-yloxy)-N,N,2-trimethyl-1H-benzo[d]imidazole-6-carboxamide], the “% inhibition of IA” value [4] is reported as 78.18%, the “% inhibition of Time pH < 4” value [4] is reported as 51.35% and the “% inhibition of IA” value [5] is reported as 62.64%. The “% inhibition of Time pH < 4” value [5] was 39.65%, the “% inhibition of IA” value [6] was 83.98% and the “% inhibition of Time pH < 4” value [6] was 61.41%. The “IA (integrated acidity)” value [4] was 355.02 mmol·h/L, the “Median pH” value [4] was 4.57 and the “Time pH > 4 (%)” value [4] was 58.55%. For the same compound, the “Time pH > 6 (%)” value [4] was 25.97%, the “IA (integrated acidity)” value [5] was 184.29 mmol·h/L and the “Median pH” value [5] was 4.08. For the same compound, the “Time pH > 4 (%)” value [5] was 52.06%, the “Time pH > 6 (%)” value [5] was 21.56% and the “IA (integrated acidity)” value [6] was 170.73 mmol·h/L. The “Median pH” value [6] was 4.98, the “Time pH > 4 (%)” value [6] was 65.11% and the “Time pH > 6 (%)” value [6] was 30.41%. The “% inhibition of IA” value [7] was 88.78%, the “% inhibition of Time pH < 4” value [7] was 66.22% and the “% inhibition of IA” value [8] was 90.74%. For the same compound, the “% inhibition of Time pH < 4” value [8] was 71.47%, the “% inhibition of IA” value [9] was 88.68% and the “% inhibition of Time pH < 4” value [9] was 62.53%. For the same compound, the “IA (integrated acidity)” value [7] was 229.60 mmol·h/L, the “Median pH” value [7] was 5.10 and the “Time pH > 4 (%)” value [7] was 70.07%. The “Time pH > 6 (%)” value [7] was 31.91%, the “IA (integrated acidity)” value [8] was 67.72 mmol·h/L and the “Median pH” value [8] was 5.10. For the same compound, the “Time pH > 4 (%)” value [8] was 74.57%, the “Time pH > 6 (%)” value [8] was 30.10% and the “IA (integrated acidity)” value [9] was 161.88 mmol·h/L. For the same compound, the “Median pH” value [9] was 5.01, the “Time pH > 4 (%)” value [9] was 65.61% and the “Time pH > 6 (%)” value [9] was 33.85%. For the same compound, the “% inhibition of IA” value [10] was 93.45%, the “% inhibition of Time pH < 4” value [10] was 78.87% and the “% inhibition of IA” value [11] was 97.41%. For the same compound, the “% inhibition of Time pH < 4” value [11] was 82.48%, the “% inhibition of IA” value [12] was 91.17% and the “% inhibition of Time pH < 4” value [12] was 76.00%. The “IA (integrated acidity)” value [10] was 141.62 mmol·h/L, the “Median pH” value [10] was 5.90 and the “Time pH > 4 (%)” value [10] was 81.73%. For the same compound, the “Time pH > 6 (%)” value [10] was 48.44%, the “IA (integrated acidity)” value [11] was 25.51 mmol·h/L and the “Median pH” value [11] was 5.62. The “Time pH > 4 (%)” value [11] was 85.34%, the “Time pH > 6 (%)” value [11] was 43.29% and the “IA (integrated acidity)” value [12] was 116.11 mmol·h/L. The “Median pH” value [12] was 6.00, the “Time pH > 4 (%)” value [12] was 78.15% and the “Time pH > 6 (%)” value [12] was 53.63%. The “Time pH > 4 (%)” value (Compound I 200 mg (two formulations of Example 2), night-time (0-12 hours), listed as compound of Chemical Formula 1) was 73.15% and the “time after administration until average gastric pH reached 4 or higher” value (all dose groups (50 mg, 100 mg, and 200 mg), administered at night-time) was at most 2 hours.
